Results taken from patent publication US11072780B2, “Method of differentiating human pluripotent cells into cardiac fibroblasts” (Wisconsin Alumni Research Foundation, priority 2016, dated 2021).

Legend:
[1] = test system: hPSCs; assay: Flow cytometry of stage-specific progenitors in GiWi protocol; type: cell-based, human; conditions: after 24 hours of treatment
Description: Differentiation of hPSCs to cardiomyocytes using GiWi protocol: Human PSCs were dissociated with 1 ml/well Versene solution at 37° C. for 5 minutes, and seeded on Matrigel™ coated 6-well plates at the density of 1.5×10^6 cells/well in mTeSR1 medium supplemented with 10 μM ROCK inhibitor (Y-27632) (Tocris). Cells were cultured for 5-6 days in mTeSR1 medium until the cells reached 100% confluence when differentiation started (day 0). At day 0, the medium was changed to 2.5 ml RPMI+B27 without insulin (Invitrogen) and supplemented with 12 μM CHIR99021 (Tocris) and cells were treated in this medium for 24 hrs (day 1). At day 1, medium was changed to 3 ml RPMI+B27 without insulin and cells were cultured in this medium for 48 hrs (day 3). […]
Flow Cytometry: Cells were detached from cell culture plates by incubation with 0.25% trypsin-EDTA (Invitrogen) plus 2% chick serum (Sigma) for 5 minutes at 37° C. […] Cells were counted and 0.5-1 million cells were used as the sample size for labeling. […] Data were collected on a FACSCalibur™ flow cytometer (Beckton Dickinson) and analyzed using FlowJo™ software.
Biphasic modulation of the Wnt signaling pathway with small molecules is sufficient to direct the differentiation of monolayer cultured hPSCs to cardiomyocytes^21. […] We first determined the stage-specific mesodermal and cardiac progenitor populations generated by this small molecule (GiWi) protocol^22. […]

[2] = test system: hPSCs; assay: Quantitative RT-PCR time course of GiFGF protocol; type: cell-based, human; conditions: qRT-PCR, peaking at day 1
Description: Differentiation of hPSCs to cardiac fibroblasts: Human PSCs were dissociated with 1 ml/well Versene solution (Invitrogen) at 37° C. for 5 minutes, and seeded on Matrigel™ (GFR, BD Biosciences) coated 6-well plates at the density of 1.5×10^6 cells/well in mTeSR1 medium supplemented with 10 μM ROCK inhibitor (Y-27632) (Tocris). Cells were cultured for 5-6 days in mTeSR1 medium with medium change daily until the cells reached 100% confluence when differentiation started (day 0). At day 0, the medium was changed to 2.5 ml RPMI+B27 without insulin (Invitrogen) and supplemented with 12 μM CHIR99021 (Tocris) and cells were treated in this medium for 24 hrs (day 1). At day 1, medium was changed to 3 ml RPMI+B27 without insulin and cells were cultured in this medium for another day (day 2). At day 2, the medium was changed to 2.5 ml of the defined fibroblast culture medium (Table 1) supplemented with bFGF (WiCell). Methods using L-glutamine in place of GlutaMAX were also successful. […]
RT-PCR and quantitative RT-PCR: Cell samples were collected using 0.25% trypsin-EDTA (Invitrogen) to remove the cells from cell culture plates. […] Quantitative RT-PCR (Q-PCR) was performed using Taqman PCR Master Mix and Gene Expression Assays (Applied Biosystems) in triplicate for each sample and each gene. […]

[3] = test system: hPSC-derived cardiac mesodermal progenitors; assay: Cardiac fibroblast differentiation induced by bFGF at stage-specific progenitors, flow cytometry at 20 days; type: cell-based
Description: Differentiation of hPSCs to cardiac fibroblasts: Human PSCs were dissociated with 1 ml/well Versene solution (Invitrogen) at 37° C. for 5 minutes, and seeded on Matrigel™ (GFR, BD Biosciences) coated 6-well plates at the density of 1.5×10^6 cells/well in mTeSR1 medium supplemented with 10 μM ROCK inhibitor (Y-27632) (Tocris). Cells were cultured for 5-6 days in mTeSR1 medium with medium change daily until the cells reached 100% confluence when differentiation started (day 0). At day 0, the medium was changed to 2.5 ml RPMI+B27 without insulin (Invitrogen) and supplemented with 12 μM CHIR99021 (Tocris) and cells were treated in this medium for 24 hrs (day 1). At day 1, medium was changed to 3 ml RPMI+B27 without insulin and cells were cultured in this medium for another day (day 2). At day 2, the medium was changed to 2.5 ml of the defined fibroblast culture medium (Table 1) supplemented with bFGF (WiCell). Methods using L-glutamine in place of GlutaMAX were also successful. Cells were fed every other day and cultured until day 20 for flow cytometry analysis and subculture of cardiac fibroblasts.
Flow Cytometry: Cells were detached from cell culture plates by incubation with 0.25% trypsin-EDTA (Invitrogen) plus 2% chick serum (Sigma) for 5 minutes at 37° C. Cells were vortexed to disrupt the aggregates followed by neutralization by adding equal volume of EB20 medium (Zhang et al., Circ Res. 2009). Cells were counted and 0.5-1 million cells were used as the sample size for labeling. Cells were fixed in 1% paraformaldehyde in a 37° C. water bath for 10 minutes in the dark. For labeling intracellular markers, cells were permeabilized in ice-cold 90% methanol for 30 minutes on ice. Cells were washed once in FACS buffer (PBS without Ca/Mg2^+, 0.5% BSA, 0.1% NaN3), centrifuged and resuspended in about 50 μl FACS buffer with (for intracellular markers) or without 0.1% Triton X-100. For labeling surface markers, appropriate amounts of the conjugated antibodies were added according to the manufacturer's instruction to the cells in FACS buffer to make the final volume of 100 μl with FACS buffer, and incubated in the dark for 30 minutes at room temperature. Cells were washed once with 3 ml FACS buffer and resuspended in 300-500 μl FACS buffer for analysis. […] Data were collected on a FACSCalibur™ flow cytometer (Beckton Dickinson) and analyzed using FlowJo™ software.
Our goal was to bias the differentiation to generate cardiac fibroblasts rather than cardiomyocytes. […] Following 20 days of differentiation, cells were analyzed by flow cytometry using a specific fibroblast antibody (mouse anti-human fibroblast, clone TE-7) and an antibody to sarcomeric myosin (MF20) expressed in cardiomyocytes. […]

Molecule | Brachyury expression [1] | early mesodermal gene T expression [2] | bFGF concentration at which fibroblast marker positive cells peaked ([3]; added on day 2 of differentiation) | fibroblast marker positive cells (clone TE-7) ([3]; bFGF 0-125 ng/ml in CFBM, 20 days of differentiation, flow cytometry) | cell death ([3]; higher concentration of bFGF added on day 3 or day 4, after day 6 of differentiation) | generation of MF20+ cardiomyocytes ([3]; medium change and bFGF added on day 2 or day 3)
Cc1c[nH]c(-c2cnc(NCCNc3ccc(C#N)cn3)nc2-c2ccc(Cl)cc2Cl)n1 [CHIR, CHIR99021] | expressed in almost all cells | transiently up-regulated |  |  |  | 
bFGF: fibroblast growth factor (WiCell) added to the defined fibroblast medium |  |  | 75 ng/mL | concentration-dependent increase | significant cell death | effectively prevented
